Data from patent publication US9365522B2, “Pyrazole amide derivative” (AMGEN INC., priority 2015, dated 2016).

Biological target: T1, human RORγ-LBD (Homo sapiens, UniProt P51449)
T1 construct: made in house; host or cells: E. coli (BL-21)
T1 sequence (P51449 262-518): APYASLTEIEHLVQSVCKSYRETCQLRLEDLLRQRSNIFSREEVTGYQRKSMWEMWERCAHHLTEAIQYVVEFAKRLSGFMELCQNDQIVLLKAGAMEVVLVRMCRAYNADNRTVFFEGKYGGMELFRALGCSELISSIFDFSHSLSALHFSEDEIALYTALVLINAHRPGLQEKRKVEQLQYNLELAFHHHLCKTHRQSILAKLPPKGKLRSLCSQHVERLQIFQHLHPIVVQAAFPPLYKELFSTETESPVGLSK
Experiment: ROR gamma coactivator peptide recruitment Alphascreen assay (RORγ-LBD binding to GRIP1 coactivator peptide)
Format: biochemical
Settings: 5 nM human RORγ-LBD, 30 nM 7-β-hydroxycholesterol, 50 nM biotinylated GRIP1 coactivator peptide, overnight incubation at room temperature; read-out: result (pIC50, RORγ coactivator peptide recruitment Alphascreen assay) (converted)
Outline: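 Alphascreen proximity read-out after overnight room-temperature incubation, yielding pIC50 from 1-in-2 compound series (2.5% DMSO final). Mixture: 50 nM biotin-GRIP1 peptide, 30 nM 7-β-hydroxycholesterol agonist, 5 nM recombinant 6×His:Flag human RORγ-LBD (aa 262-518), 50 mM HEPES pH 7.4.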

| IC50 [nM] | Compound |
| --- | --- |
| 79.4 | Cc1cc(Cl)c(C(=O)CN(CC(C)(C)C)C(=O)c2cnn([C@H]3CC[C@H](C(=O)O)CC3)c2C(F)(F)F)c(Cl)n1 [Example 542, trans-4-(4-((2-(2,4-dichloro-6-methyl-3-pyridinyl)-2-oxoethyl)(2,2-dimethylpropyl)carbamoyl)-5-(trifluoromethyl)-1H-pyrazol-1-yl)cyclohexanecarboxylic acid] |
| 7.94 | Cc1cc(C)c(C(=O)CN(Cc2cc(F)cc(F)c2)C(=O)c2cnn([C@H]3CC[C@](C)(C(=O)O)CC3)c2C(F)(F)F)c(Cl)n1 [Example 702, trans-4-(4-((2-(2-chloro-4,6-dimethyl-3-pyridinyl)-2-oxoethyl)(3,5-difluorobenzyl)carbamoyl)-5-(trifluoromethyl)-1H-pyrazol-1-yl)-1-methylcyclohexanecarboxylic acid] |
| 14.5 | Cc1cc(Cl)c(C(=O)CN(CC(C)(C)C)C(=O)c2cnn([C@H]3CC[C@H](CC(=O)O)CC3)c2C(F)(F)F)c(Cl)n1 [Example 740, (trans-4-(4-((2-(2,4-dichloro-6-methyl-3-pyridinyl)-2-oxoethyl)(2,2-dimethylpropyl)carbamoyl)-5-(trifluoromethyl)-1H-pyrazol-1-yl)cyclohexyl)acetic acid] |
| 3.39 | Cc1cc(Cl)c(C(=O)CN(CC(C)(C)C)C(=O)c2cnn([C@H]3CC[C@](C)(C(=O)O)CC3)c2C(F)(F)F)c(Cl)c1 [Example 568, trans-4-(4-((2-(2,6-dichloro-4-methylphenyl)-2-oxoethyl)(2,2-dimethylpropyl)carbamoyl)-5-(trifluoromethyl)-1H-pyrazol-1-yl)-1-methylcyclohexanecarboxylic acid] |
| 7.24 | C[C@]1(C(=O)O)CC[C@H](n2ncc(C(=O)N(CC(=O)c3c(Cl)cncc3Cl)C[C@@H]3CC3(F)F)c2C(F)(F)F)CC1 [Example 818, trans-4-(4-((2-(3,5-dichloro-4-pyridinyl)-2-oxoethyl)(((1S)-2,2-difluorocyclopropyl)methyl)carbamoyl)-5-(trifluoromethyl)-1H-pyrazol-1-yl)-1-methylcyclohexanecarboxylic acid] |
| 11.7 | C[C@H]1C[C@H](n2ncc(C(=O)N(CC(=O)c3c(Cl)cncc3Cl)CC(C)(C)C(F)(F)F)c2C(F)(F)F)CC[C@H]1C(=O)O [Example 875, (1R,2S,4R)-4-(4-((2-(3,5-dichloro-4-pyridinyl)-2-oxoethyl)(3,3,3-trifluoro-2,2-dimethylpropyl)carbamoyl)-5-(trifluoromethyl)-1H-pyrazol-1-yl)-2-methylcyclohexanecarboxylic acid] |
| 10 | C[C@]1(C(=O)O)CC[C@H](n2ncc(C(=O)N(CC(=O)c3c(Cl)cncc3Cl)CC3CCC3)c2C(F)(F)F)CC1 [Example 734, trans-4-(4-((cyclobutylmethyl)(2-(3,5-dichloro-4-pyridinyl)-2-oxoethyl)carbamoyl)-5-(trifluoromethyl)-1H-pyrazol-1-yl)-1-methylcyclohexanecarboxylic acid] |
| 151 | CC(C)(C)C[C@H](CO)N(CCc1c(Cl)cccc1Cl)C(=O)c1cnn([C@H]2CC[C@](C)(C(=O)O)CC2)c1C(F)(F)F [Example 605, trans-4-(4-((2-(2,6-dichlorophenyl)ethyl)((2R)-1-hydroxy-4,4-dimethyl-2-pentanyl)carbamoyl)-5-(trifluoromethyl)-1H-pyrazol-1-yl)-1-methylcyclohexanecarboxylic acid] |
| 229 | CC(C)(C#N)CCN(CC(=O)c1c(Cl)cccc1Cl)C(=O)c1cnn([C@H]2CC[C@](C)(C(=O)O)CC2)c1C(F)(F)F [Example 622, trans-4-(4-((3-cyano-3-methylbutyl)(2-(2,6-dichlorophenyl)-2-oxoethyl)carbamoyl)-5-(trifluoromethyl)-1H-pyrazol-1-yl)-1-methylcyclohexanecarboxylic acid] |
